Among the data in PMC10206591, “Identification of small molecules capable of enhancing viral membrane fusion” (Virology Journal, 2023) are Z-score values, retold here.

In this experiment the test system is SARS-CoV-2 S-mediated membrane fusion.

Structures are written as SMILES. Where a name gives a salt, the structure may show the parent alone.

As for `CC=CC(=O)N(CC)c1ccccc1C` (mixture of isomers) [Crotamiton], the Z-score was 2,94.
In the case of `O=c1[nH]cc(F)c(=O)[nH]1` [5-fluorouracil], the Z-score is 3,16.
The same measure for `CC(=O)c1ccc2c(c1)N(CCCN(C)C)c1ccccc1S2.O=C(O)/C=C\C(=O)O` [Acetopromazine maleate salt]: 1,71; for `CCCSc1ccc2nc(NC(=O)OC)[nH]c2c1` [Albendazole]: 1,67.
`C=CC[C@]1(O)CC[C@H]2[C@@H]3CCC4=CC(=O)CCC4=C3C=C[C@@]21C` [Altrenogest]: the Z-score was 2,61.
Take `CCCCCC[C@H]1C(=O)O[C@H](C)[C@H](NC(=O)c2cccc(NC=O)c2O)C(=O)O[C@@H](C)[C@@H]1OC(=O)CC(C)C` [Antimycin A]: the Z-score is 4,08.
The same measure for `CC(C)c1c(C(=O)Nc2ccccc2)c(-c2ccccc2)c(-c2ccc(F)cc2)n1CC[C@@H](O)C[C@@H](O)CC(=O)O` [Atorvastatin]: 1,88; for `Nc1nc(O)c2[nH]nnc2n1` [Azaguanine-8]: 6,79; for `CCCC1C(=O)N2C(N(C)C)=Nc3ccc(C)cc3N2C1=O` (stereo not drawn) [Azapropazone]: 1,91.
Regarding `CN1CCCC(n2nc(Cc3ccc(Cl)cc3)c3ccccc3c2=O)CC1` (stereo not drawn) [Azelastine hydrochloride], the Z-score is given as 1,52.
As for `Cl.N[C@@H]1CCCCN(c2c(F)cc3c(=O)c(C(=O)O)cn(C4CC4)c3c2Cl)C1` [Besifloxacin hydrochloride], the Z-score was 2,15.
Consider `CC(C)C[C@H]1C(=O)N2CCC[C@H]2[C@]2(O)O[C@](NC(=O)[C@@H]3C=C4c5cccc6[nH]c(Br)c(c56)C[C@H]4N(C)C3)(C(C)C)C(=O)N12.CS(=O)(=O)O` [Bromocryptine mesylate], for which the Z-score is 5,89.
Regarding `CCCCCCNC(=O)n1cc(F)c(=O)[nH]c1=O` [Carmofur], the Z-score was 4,69.
Then `O=C(N[C@H](CO)[C@H](O)c1ccc([N+](=O)[O-])cc1)C(Cl)Cl` [Chloramphenicol], with 2,64; and `Nc1nc(Cl)nc2c1ncn2[C@H]1C[C@H](O)[C@@H](CO)O1` [Cladribine], with 1,60.
Then `CCCCCCC[N+](CC)(CC)CCCCc1ccc(Cl)cc1.Cc1ccc(S(=O)(=O)[O-])cc1` [Clofilium tosylate], with 2,76; and `COc1cc2c(c(OC)c1OC)-c1ccc(OC)c(=O)cc1[C@@H](NC(C)=O)CC2` [Colchicine], with 1,93.
Turning to `CN(C)/N=N/c1[nH]cnc1C(N)=O` [Dacarbazine], the Z-score was 2,34.
Then `COc1cccc2c1C(=O)c1c(O)c3c(c(O)c1C2=O)C[C@@](O)(C(C)=O)C[C@@H]3O[C@H]1C[C@H](N)[C@H](O)[C@H](C)O1` [Daunorubicin hydrochloride], with 1,79; and `Cc1cc(N)c2ccccc2[n+]1CCCCCCCCCC[n+]1c(C)cc(N)c2ccccc21` [Dequalinium dichloride], with 4,90; and `Clc1ccc2c(c1)CCc1cccnc1C2=C1CCNCC1` [Desloratadine], with 1,59.
Then `CC1(C)O[C@@H]2C[C@H]3[C@@H]4CCC5=CC(=O)C=C[C@]5(C)[C@H]4[C@@H](O)C[C@]3(C)[C@]2(C(=O)CO)O1` [Desonide], with 1,59; and `CC(=O)O[C@@]12CO[C@@H]1C[C@H](O)[C@@]1(C)C(=O)[C@H](O)C3=C(C)[C@@H](OC(=O)[C@H](O)[C@@H](NC(=O)OC(C)(C)C)c4ccccc4)C[C@@](O)([C@@H](OC(=O)c4ccccc4)[C@H]21)C3(C)C` [Docetaxel], with 1,72; and `COc1cccc2c1C(=O)c1c(O)c3c(c(O)c1C2=O)C[C@@](O)(C(=O)CO)C[C@@H]3O[C@H]1C[C@H](N)[C@H](O)[C@H](C)O1` [Doxorubicin hydrochloride], with 4,48.
The same measure for `C[C@H]1c2cccc(O)c2C(=O)C2=C(O)[C@]3(O)C(=O)C(C(N)=O)=C(O)[C@@H](N(C)C)[C@@H]3[C@@H](O)[C@@H]21` [Doxycycline hydrochloride]: 3,00; for `C=CCOC(Cn1ccnc1)c1ccc(Cl)cc1Cl` (stereo not drawn) [Enilconazole]: 3,25.
Turning to `C[C@]12CC[C@H]3C(=CCc4cc(O)ccc43)[C@@H]1CCC2=O` [Equilin], the Z-score is 1,98.
`C[C@]12CC[C@@H]3c4ccc(OC(=O)N(CCCl)CCCl)cc4CC[C@H]3[C@@H]1CC[C@@H]2O` [Estramustine]: the Z-score was 3,30.
In the case of `CCOc1ccc(Cc2nccc3cc(OCC)c(OCC)cc23)cc1OCC` [Ethaverine hydrochloride], the Z-score is reported as 4,10.
As to `C#C[C@]1(O)CC[C@H]2[C@@H]3CCc4cc(OC)ccc4[C@H]3CC[C@@]21C` [Ethynylestradiol 3-methyl ether], the Z-score is recorded as 1,52.
Then `O=c1[nH]c(=O)n([C@H]2C[C@H](O)[C@@H](CO)O2)cc1F` [Floxuridine], with 4,71; and `COC(=O)Nc1nc2cc(C(=O)c3ccc(F)cc3)ccc2[nH]1` [Flubendazol], with 3,95; and `CC(=O)O[C@H]1C[C@@]2(C)[C@@H](C[C@@H](O)[C@H]3[C@@]4(C)CC[C@@H](O)[C@@H](C)[C@@H]4CC[C@@]32C)/C1=C(\CCC=C(C)C)C(=O)O` [Fusidic acid sodium salt], with 2,35.
The same measure for `COc1cc2ncnc(Nc3ccc(F)c(Cl)c3)c2cc1OCCCN1CCOCC1` [Gefitinib]: 3,33; for `Oc1c(Cl)cc(Cl)c(Cl)c1Cc1c(O)c(Cl)cc(Cl)c1Cl` [Hexachlorophene]: 3,99; for `CC[C@H](c1ccc(O)cc1)[C@@H](CC)c1ccc(O)cc1` [Hexestrol]: 2,65.
Then `CN1CCCN(C(c2ccccc2)c2ccc(Cl)cc2)CC1.Cl.Cl` (stereo not drawn) [Homochlorcyclizine dihydrochloride], with 2,19; and `CC(C)C(=O)c1c(C(C)C)nn2ccccc12` [Ibudilast], with 1,71.
Turning to `Cc1ccc(NC(=O)c2ccc(CN3CCN(C)CC3)cc2)cc1Nc1nccc(-c2cccnc2)n1` [Imatinib], the Z-score was 2,20.
On to `CC(C)Oc1ccc2c(=O)c(-c3ccccc3)coc2c1` [Ipriflavone], for which the Z-score was 2,37.
Take `CCc1c2c(nc3ccc(OC(=O)N4CCC(N5CCCCC5)CC4)cc13)-c1cc3c(c(=O)n1C2)COC(=O)[C@]3(O)CC.Cl.O.O.O` [Irinotecan hydrochloride trihydrate]: the Z-score was 4,23.
Then `Cc1c(OCC(F)(F)F)ccnc1C[S+]([O-])c1nc2ccccc2[nH]1` (stereo not drawn) [Lansoprazole], with 3,43; and `CNCCCC12CCC(c3ccccc31)c1ccccc12` [Maprotiline hydrochloride], with 2,05; and `O=C([O-])c1ccccc1-c1c2cc(Br)c(=O)cc-2oc2[c]([Hg+])c([O-])c(Br)cc12.[Na+].[Na+].[OH-]` [Merbromin], with 8,74.
The same measure for `COC(=O)Nc1nc2ccc(SC(C)C)cc2[nH]1` [Methiazole]: 3,16; for `CC[C@H](C)C(=O)O[C@H]1CCC=C2C=C[C@H](C)[C@H](CC[C@@H]3C[C@@H](O)CC(=O)O3)[C@H]21` [Mevastatin]: 1,92; for `CN(C)c1ccc(O)c2c1C[C@H]1C[C@H]3[C@H](N(C)C)C(O)=C(C(N)=O)C(=O)[C@@]3(O)C(O)=C1C2=O` [Minocycline hydrochloride]: 4,43.
Regarding `CN(c1nccc(=O)[nH]1)C1CCN(c2nc3ccccc3n2Cc2ccc(F)cc2)CC1` [Mizolastine], the Z-score is 2,15.
Then `C[C@@H]1C[C@H]2[C@@H]3CCC4=CC(=O)C=C[C@]4(C)[C@@]3(Cl)[C@@H](O)C[C@]2(C)[C@@]1(OC(=O)c1ccco1)C(=O)CCl` [Mometasone furoate], with 2,51.
Take `C/C(=C\C(=O)OCCCCCCCCC(=O)O)C[C@@H]1OC[C@H](C[C@@H]2O[C@H]2[C@@H](C)[C@H](C)O)[C@@H](O)[C@H]1O` [Mupirocin]: the Z-score is recorded as 1,57.
The same measure for `O=C1CN(/N=C/c2ccc([N+](=O)[O-])o2)C(=O)N1` [Nitrofurantoin]: 2,23; for `COC(=O)Nc1nc2ccc(C(=O)c3cccs3)cc2[nH]1` [Nocodazole]: 2,99.
The same measure for `COC(=O)Nc1nc2ccc([S+]([O-])c3ccccc3)cc2[nH]1` (stereo not drawn) [Oxfendazol]: 1,63; for `CCCOc1ccc2nc(NC(=O)OC)[nH]c2c1` [Oxibendazol]: 2,13; for `CN(C)[C@@H]1C(O)=C(C(N)=O)C(=O)[C@@]2(O)C(O)=C3C(=O)c4c(O)cccc4[C@@](C)(O)[C@H]3[C@H](O)[C@@H]12` [Oxytetracycline dihydrate]: 2,06.
On to `COc1ccc(Cc2nccc3cc(OC)c(OC)cc23)cc1OC` [Papaverine hydrochloride], for which the Z-score is 4,33.
The same measure for `CCCCc1ccc2[nH]c(NC(=O)OC)nc2c1` [Parbendazole]: 2,56; for `N=C(N)c1ccc(OCCCCCOc2ccc(C(=N)N)cc2)cc1` [Pentamidine isethionate]: 6,07.
As for `O=C(O)CN(CCN(CC(=O)O)CC(=O)O)CCN(CC(=O)O)CC(=O)O` [Pentetic acid], the Z-score is 2,14.
On to `C1CCC(C(CC2CCCCN2)C2CCCCC2)CC1` (stereo not drawn) [Perhexiline maleate], for which the Z-score was 2,68.
As to `CC(=O)Nc1ccc(OCC(O)CNC(C)C)cc1` (stereo not drawn) [Practolol], the Z-score is on record as 1,57.
The same measure for `COCCCOc1ccnc(C[S+]([O-])c2nc3ccccc3[nH]2)c1C` (stereo not drawn) [Rabeprazole Sodium salt]: 3,89; for `O=C(O)c1cn(-c2ccc(F)cc2)c2cc(N3CCNCC3)c(F)cc2c1=O` [Sarafloxacin]: 2,16.
On to `C[C@@H]1CN(c2c(F)c(N)c3c(=O)c(C(=O)O)cn(C4CC4)c3c2F)C[C@H](C)N1` [Sparfloxacin], for which the Z-score is reported as 2,09.
In the case of `CS(=O)(=O)c1ccc([C@@H](O)[C@@H](CO)NC(=O)C(Cl)Cl)cc1` [Thiamphenicol], the Z-score was 2,42.
Then `CN1CCN(CCCN2c3ccccc3Sc3ccc(S(=O)(=O)N(C)C)cc32)CC1.CS(=O)(=O)O.CS(=O)(=O)O` [Thioproperazine dimesylate], with 2,39.
